Measurements as given in patent publication US6420399B1, “Topical ophthalmic mast cell stabilizers for treating allergic eye disease” (Alcon Manufacturing, Ltd., priority 1999, dated 2002).

Experiments:
mast cells = conditions: concentrations higher than those with antihistaminic / stabilizing activity; cited from earlier work
[1] = Surface Activity Rating: change in surface pressure of SOPC monolayer in Langmuir trough; assay type: physicochemical; conditions: initial surface pressure 30 mN/m, 24° C.
Excerpt: The Surface Activity Rating is obtained by determining the interaction of an amphipathic anti-allergy drug (“test compound”) in buffer alone with a phospholipid monolayer. Test compound/mast cell membrane interaction is mimicked in a phospholipid monolayer spread onto an aqueous buffer in a modified Langmuir trough. In this system, test compound-membrane interaction is quantified by determining the change in surface pressure (Δπ in mN/m) of a monomolecular film of 1-stearoyl-2-oleoyl-sn-glycero-3-phosphocholine (SOPC) spread at an initial surface pressure of 28-32 mN/m on an aqueous buffer sub-phase. The initial surface pressure of 28-32 mN/m is chosen because this pressure mimics that of most mammalian cell membranes. […]
Surface pressure is measured using an automated interfacial monitor-controller built around a Cahn 27 electrobalance equipped with a 24 ga. nichrome wire Wilhelmy probe. […]
The effect of test compound on surface pressure is determined by a continuous exchange of the aqueous phase with a concentrated solution of the test compound in buffer. […] The concentration of test compound in the aqueous phase is determined from the fraction of sub-phase volume exchanged and the concentration of the solute in the concentrated solution. […]

[2] = test system: human conjunctival mast cells; conditions: purified preparations of human conjunctival mast cells; Yanni et al. 1996; cited from earlier work

Structure (SMILES) | effect on histamine release from mast cells as a function of concentration (mast cells) | increase in surface pressure (Surface Activity Rating) ([1]; pH 7.5, concentration range of 0-3.5 mM) | effect on histamine release as a function of concentration [2] | increase in surface pressure (Surface Activity Rating) ([1]; pH 7.5, concentration in aqueous sub-phase increased from 0 to 5 mM)
O=C(O)c1cc(=O)c2c(OCC(O)COc3cccc4oc(C(=O)O)cc(=O)c34)cccc2o1 [cromolyn sodium] | biphasic behavior | – | – | –
CN1CCC(=C2c3ccccc3CC(=O)c3sccc32)CC1 [ketotifen, 4,9-dihydro-4-(1-methyl-4-piperidinyl-idene)-10H-benzo[4,5]cyclohepta-[1,2-b]thiophen-10-one] | – | 15 mN/m | biphasic behavior | –
CN(C)CC/C=C1/c2ccccc2COc2ccc(CC(=O)O)cc21 [olopatadine, Z-11-(3-dimethylaminopropylidene)-6,11-dihydrodibenz[b,e]oxepin-2-acetic acid] | does not provoke a release of histamine from mast cells | – | – | 7.1 mN/m
